Columns and labels:
Gaeumannomyces graminis = Gaeumannomyces graminis / liquid culture (take-all of cereals); type: cell-based; settings: 20 ppm, growth inhibition photometrically 4-5 days after application, vs untreated control
Description: Gaeumannomyces Graminis/Liquid Culture (Take-All of Cereals)
Mycelial fragments of the fungus from cryogenic storage were directly mixed into nutrient broth (PDB potato dextrose broth). After placing a (DMSO) solution of test compound into a microtiter plate (96-well format), the nutrient broth containing the fungal spores iss added. The test plates are incubated at 24° C. and the inhibition of growth is determined photometrically 4-5 days after application.

SMILES	melting point [°C]	control of Gaeumannomyces graminis (Gaeumannomyces graminis)
C#CCC(C)(CC(C)C)C(=O)Nc1cnc2c(F)cccc2c1 (stereo not shown) [Compound E-3, N-(8-fluoro-3-quinolyl)-2-isobutyl-2-methyl-pent-4-ynamide]	125 to 127	
O=C(Nc1cnc2c(F)cccc2c1)C(CC#CC1CC1)CC(F)(F)F (stereo not shown) [Compound E-2, 5-cyclopropyl-N-(8-fluoro-3-quinolyl)-2-(2,2,2-trifluoroethyl)pent-4-ynamide]	182 to 184	
CC#CCC(C)(CC(C)C)C(=O)Nc1cnc2c(F)cccc2c1 (stereo not shown) [Compound E-5, N-(8-fluoro-3-quinolyl)-2-isobutyl-2-methyl-hex-4-ynamide]	139 to 140	at least 80%
